In patent US7781565B2 (priority 2006, dated 2010):

Tested on: NCI-60 cell lines
Type: cell-based, human

KRESGLG
Cell Line with which the peptide (and its tripeptide motif) is associated: Hop-62-Lung

SLYRGRL
Cell Line the peptide is associated with (peptide recovered from phage library selection on this NCI-60 cell line): T-47D Breast

GSVSAGA
Cell Line (NCI-60 cell line the peptide is associated with): HT-29 Colon

TLGVLVT
Cell Line the peptide is associated with (peptide recovered from phage library selection on this NCI-60 cell line): NCI/ADR-RES Breast

VGSVGLG
Cell Line with which the peptide (and its tripeptide motif) is associated: Hop-62-Lung

SGPGRLP
Cell Line (NCI-60 cell line the peptide and its motif are associated with): M14 Melanoma

ERGSPSR
Cell Line with which the peptide (and its tripeptide motif) is associated: H460-Lung

VAASVRE
Cell Line (NCI-60 cell line the peptide and its motif are associated with): OVCAR-3 Ovarian

RVGAGWP
Cell Line the peptide is associated with (peptide recovered from phage library selection on this NCI-60 cell line): BT-549 Breast

PRGGRVA
Cell Line with which the peptide (and its tripeptide motif) is associated: Hop-92-Lung

FTSGVSW
Cell Line (NCI-60 cell line the peptide is associated with): COLO-205-Colon

GVAGGAT
Cell Line (NCI-60 cell line the peptide is associated with): SW620-Colon

AGGPTKY
Cell Line with which the peptide (and its tripeptide motif) is associated: SR Leukemia

SHTAGGG
Cell Line (NCI-60 cell line the peptide and its motif are associated with): PC3 Prostate

LASLARP
Cell Line the peptide is associated with (peptide recovered from phage library selection on this NCI-60 cell line): T-47D Breast

LGGARGV
Cell Line the peptide is associated with (peptide recovered from phage library selection on this NCI-60 cell line): MDA-MB-231 Breast

LNAGGSG
Cell Line (NCI-60 cell line the peptide and its motif are associated with): DU-145 Prostate

WRLGAVG
Cell Line (NCI-60 cell line the peptide is associated with): SW620-Colon

RGPSQVL
Cell Line (NCI-60 cell line the peptide and its motif are associated with): PC3 Prostate

FAGRVPS
Cell Line with which the peptide (and its tripeptide motif) is associated: RPMI-8226-Leukemia

GPSFDAK
Cell Line the peptide is associated with (peptide recovered from phage library selection on this NCI-60 cell line): RXF393 Renal

LIGPGGR
Cell Line with which the peptide (and its tripeptide motif) is associated: H322-Lung

TFAGRSL
Cell Line (NCI-60 cell line the peptide and its motif are associated with): A498 Renal

SNARGPR
Cell Line with which the peptide (and its tripeptide motif) is associated: K-562-Leukemia

SRSGRLN
Cell Line (NCI-60 cell line the peptide and its motif are associated with): SK-MEL-2 Melanoma

AVFRASR
Cell Line the peptide is associated with (peptide recovered from phage library selection on this NCI-60 cell line): CAIK-1 Renal

GGRSSHP
Cell Line with which the peptide (and its tripeptide motif) is associated: Molt-4-Leukemia

GGRVRGG
Cell Line (NCI-60 cell line the peptide and its motif are associated with): OVCAR-4 Ovarian

ARLRASR
Cell Line (NCI-60 cell line the peptide and its motif are associated with): PC3 Prostate

PWYDGSV
Cell Line (NCI-60 cell line the peptide and its motif are associated with): OVCAR-3 Ovarian

ARAGSTF
Cell Line (NCI-60 cell line the peptide and its motif are associated with): A498 Renal

GVSGLSR
Cell Line (NCI-60 cell line the peptide and its motif are associated with): DU-145 Prostate

GAVVKPI
Cell Line with which the peptide (and its tripeptide motif) is associated: A549-Lung

EWHAASG
Cell Line (NCI-60 cell line the peptide and its motif are associated with): SK-MEL-2 Melanoma

DGGRRSS
Cell Line with which the peptide (and its tripeptide motif) is associated: EKVX-Lung

AVWRLSH
Cell Line with which the peptide (and its tripeptide motif) is associated: H322-Lung

WLLRGFG
Cell Line (NCI-60 cell line the peptide and its motif are associated with): A498 Renal

GLVTAPL
Cell Line (NCI-60 cell line the peptide is associated with): COLO-205-Colon

TQVEARG
Cell Line the peptide is associated with (peptide recovered from phage library selection on this NCI-60 cell line): HS 578 T Breast

SSRGGSS
Cell Line (NCI-60 cell line the peptide is associated with): MALME-3M Melanoma

WGVAGLG
Cell Line (NCI-60 cell line the peptide is associated with): HT-29 Colon

LVSSSEP
Cell Line with which the peptide (and its tripeptide motif) is associated: HL-60-Leukemia

RRSGLGD
Cell Line (NCI-60 cell line the peptide is associated with): HCC-2998-Colon

ERARGYP
Cell Line with which the peptide (and its tripeptide motif) is associated: SR Leukemia

WVGSSKF
Cell Line with which the peptide (and its tripeptide motif) is associated: A549-Lung

GLVGWGI
Cell Line the peptide is associated with (peptide recovered from phage library selection on this NCI-60 cell line): BT-549 Breast

SSGSVDS
Cell Line with which the peptide (and its tripeptide motif) is associated: H322-Lung

GKGMGLG
Cell Line (NCI-60 cell line the peptide and its motif are associated with): OVCAR-5 Ovarian

HIGLGGL
Cell Line (NCI-60 cell line the peptide is associated with): SF-295 CNS

TRYSLRS
Cell Line the peptide is associated with (peptide recovered from phage library selection on this NCI-60 cell line): TK-10 Renal

GAGRGDR
Cell Line (NCI-60 cell line the peptide is associated with): SF-295 CNS

HVRGRVA
Cell Line (NCI-60 cell line the peptide and its motif are associated with): SK-MEL-5 Melanoma

DVSGRVP
Cell Line with which the peptide (and its tripeptide motif) is associated: HL-60-Leukemia

CQGLVLQ
Cell Line with which the peptide (and its tripeptide motif) is associated: K-562-Leukemia
